# Source: patent publication US9540423B2, “Plant defensins and use in the treatment of proliferative diseases” (Balmoral Australia Pty Ltd, priority 2011, dated 2017)
# Where two headings read alike, the source gives them in different places.
# Tests used:
# [1] = test system: Phoma betae; conditions: cited from earlier work
# [2] = test system: Fusarium oxysporum f. sp. vasinfectum (Fov); conditions: cited from earlier work
# [3] = test system: Thielaviopsis basicola; conditions: cited from earlier work
# [4] = subcutaneous, intraperitoneal or intratumoural routes; previous studies; cited from earlier work
# [5] = test system: Verticillium dahliae; conditions: cited from earlier work
# [6] = test system: Aspergillus nidulans; conditions: cited from earlier work
# [7] = test system: normal human umbilical vein endothelial cells (HUVEC); test: MTT cell viability assay, HUVEC; assay type: cell-based; conditions: 48 h
# Method: Tumour cells were seeded in quadruplicate into wells of a flat-bottomed 96-well microtitre plate (50 μL) at various densities starting at 2×10^6 cells/mL. Four wells containing complete culture medium alone were included in each assay as a background control. The microtitre plate was incubated overnight at 37° C. under a humidified atmosphere containing 5% CO2/95% air, prior to the addition of complete culture medium (100 μL) to each well and further incubated at 37° C. for 48 h. Optimum cell densities (30-50% confluency) for cell viability assays were determined for each cell line by light microscopy.
# Tumour cells were seeded in a 96-well microtitre plate (50 μL/well) at an optimum density determined in the cell optimisation assay as above. Background control wells (n=8) containing the same volume of complete culture medium were included in the assay. The microtitre plate was incubated overnight at 37° C., prior to the addition of proteins at various concentrations and the plate was incubated for a further 48 h. […]
# The effect of NoD173 on the viability of a tumour cell line and a normal human cell isolate was determined using a 3-(4,5-dimethyl-2-thiazolyl)-2,5-diphenyl-2H-tetrazolium bromide (MTT) in vitro cell culture viability assay. […]
# [8] = test system: Leptosphaeria maculans; conditions: cited from earlier work
Substance,Concentration inhibiting growth of Phoma betae [1] [µg/mL],Growth inhibition of Fov ([2]; 1 μM) [%],Growth inhibition of Fov ([2]; 5 μM),Growth inhibition of T. basicola ([3]; 1 μM),Growth inhibition of T. basicola ([3]; 5 μM),Dose at which toxicity was shown [4],Growth inhibition of V. dahliae ([5]; 1 μM),Growth inhibition of V. dahliae ([5]; 5 μM),Growth inhibition of A. nidulans ([6]; 1 μM),Growth inhibition of A. nidulans ([6]; 5 μM),IC50 [7] [µM],Growth inhibition of L. maculans ([8]; 1 μM) [%],Growth inhibition of L. maculans ([8]; 5 μM)
"Rs-AFP2: antifungal protein (plant defensin) isolated from radish seeds, 51 amino acids (QKLCQRPSGTWSGVCGNNNACKNQCIRLEKARHGSCNYVFPAHKCICYFPC; UniProt P30230 30-80, looked up)",1,–,–,–,–,–,–,–,–,–,–,–,–
"NaD1: plant defensin isolated from floral tissue of Nicotiana alata; model class II defensin (RECKTESNTFPGICITKPPCRKACISEKFTDGHCSKILRRCLCTKPC; UniProt Q8GTM0 26-72, looked up)",–,50,more than 80%,approximately 65%,more than 80%,above 1 mg/kg body weight,approximately 65%,more than 80%,approximately 65%,more than 80%,15,50,more than 80%
